Data reported in patent publication US8476064B2, “Inhibition assay method and device for detection of antibiotics” (Charm Sciences, Inc., priority 2006, dated 2013).

Key:
B.st. spores [1] = test: Antibiotic detection test in spiked milk, borate/succinate culture of Example 6 (Table 4); type: cell-based, Bacillus (Geobacillus) Stearothermophilus; parameters: key to Color 1 / Color 2: Color result 1 and 2 is a negative result; Color result 1 and 2 is a negative result; 3 is a borderline result; 4 and 5 is a positive result; 4 and 5 is a positive result; conditions: for % Pos (Color 2) / Color 2: after 16 hours at room temperature; for % Pos (Color 1) / Color 1: immediately after test completion
Protocol: BCP/Borate/Succinate Solution was prepared by adding 3.8 grams of Borate and 6 grams Succinate to 100 mL of reverse osmosis/deionized water (RO/DI Water) in 125 mL flask. 50 milligrams of BCP was added to a 50 mL conical tube and 5 mL of Borate/Succinate solution was added to the 50 milligrams BCP and mixed.
To prepare media 5 grams glucose and 1 gram Mueller Hinton Broth was dissolved in 100 mL RO/DI Water. 1.2 mL of a 0.01 mg/mL solution of trimethoprim in RO/DI Water was prepared and added to the media. A 20 mL of BCP/Borate/Succinate was added to the media and the media was sterile filtered through a 0.45 micron filter and then cooled to 4 degrees C.
Agar was prepared by combining 0.3 grams Difco Bacto-Agar (Item #0140-01), 0.225 NaCl and 17.485 RO/DI Water. The mixture was heated to 95° C. and then removed from the heat and allowed to cool to 75° C. Next 6 mL of media (prepared as described above with BCP/Tris) was added to the agar and mixed for 5 minutes. The mixture was cooled to 57° C. and 1 mL spore solution (concentration of 1 billion cfu/mL) was added and mixed together for 5 minutes. 0.200 mL was dispensed into the bottom of each of the vials.
In test operation 200 microliters of various milk sample, spiked with known concentrations of antibiotics, were pipetted into test vials and incubated for the prescribed time (in this test 2 hours 10 minutes) and prescribed temperature (64 degrees C.+/−2 degrees C.). Incubation was in the Charm I Inctronic incubator. Results were recorded immediately after test completion (Color 1) and after being left at room temperature for 16 hours (Color 2). Results listed are in parts per billion (ppb). 4 samples were run at each concentrations except for raw negative milk (16 samples) and 3 ppb pen G (2 samples) and amoxicillin (2 samples). Abbreviations are penicillin G (PenG); sulfamethazine (SMZ); sulfadimethoxine (SDM); tylosin (TY); gentamicin (G); oxytetracycline (OT); pirlimycin (Pirl); amoxicillin (Amox); ampicillin (Amp); cloxacillin (Clox); ceftiofur sodium (Ceft); cephaprin (Ceph); tilmicosin (Til); sulfadoxine (SDN); neomycin (Neo). Color result 1 and 2 is a negative result, 3 is a borderline result and 4 and 5 is a positive result.

B.st. spores [2] = test: Antibiotic detection test in spiked milk, Trizma/succinate culture of Example 7 (Table 5); type: cell-based, Bacillus (Geobacillus) Stearothermophilus; conditions: for 16 hr Result / % Pos (16 hr Result): 16 hours later; for % Pos (Result) / Result: immediately after test completion
Protocol: A Trizma/Succinate solution was prepared by adding 2.5 grams Trizma Base and 6 grams Succinate to 100 mL of reverse osmosis/deionized water (RO/DI Water) in a 125 mL flask. 40 milligrams of BCP (see example 1 for BCP preparation) was then added to a 50 mL conical tube and 25 mL of the Trizma/Succinate solution was added to the 40 milligrams BCP and mixed.
The media was prepared by dissolving 5 grams glucose and 1 gram Mueller Hinton Broth in 100 mL RO/DI Water. 1.2 mL of a 0.01 mg/mL solution of trimethoprim in RO/DI water was added to the media. 20 mL of the BCP/Trizma/Succinate preparation was added to the media and the media was sterile filtered through a 0.45 micron filter and cooled to 4 degrees C.
0.3 grams Difco Bacto-Agar (Item #0140-01), 0.225 NaCl and 17 mL of RO/DI water was combined and mixed and heated the mixture to 95° C. The mixture was removed from the heat and allowed it to cool to 75° C. and then 6 mL media (with BCP/Tris) was added and mixed for 5 minutes. The mixture was cooled to 57° C. and 2 mL spore (concentration of 1 billion cfu/mL) was added and mixed for 5 minutes. 0.200 mL was dispensed into the bottom of each vial.
In test operation 200 microliters of various milk samples, spiked with known concentrations of antibiotics, were pipetted into vials and incubated for the prescribed time (in this test 2 hours 30 minutes) and prescribed temperature (64 degrees C.+/−2 degrees C.). Results were recorded immediately after test completion and 16 hours later. Incubation was in various Charm Inctronic I incubators. Concentrations listed are in parts per billion (ppb). 4 samples were run at each concentration except 16 negative samples were run and 2 samples each for 3 ppb pen G and amoxicillin. Abbreviations are pencillin G (PenG); sulfamethazine (SMZ); sulfadimethoxine (SDM); tylosin (TY); gentamicin (G); oxytetracycline (OT); pirlimycin (Pirl); amoxicillin (Amox); ampicillin (Amp); cloxacillin (Clox); ceftiofur sodium (Ceft); cephaprin (Ceph); tilmicosin (Til); sulfadoxine (SDN); neomycin (Neo).

SMILES: CC1(C)S[C@@H]2[C@H](NC(=O)[C@H](N)c3ccc(O)cc3)C(=O)N2[C@H]1C(=O)O [Amox, amoxicillin]
- % Pos (Color 2) (B.st. spores [1]; milk spiked at 6 ppb): 100%
- Color 2 (B.st. spores [1]; milk spiked at 6 ppb): 5
- % Pos (Color 1) (B.st. spores [1]; milk spiked at 6 ppb): 100%
- Color 1 (B.st. spores [1]; milk spiked at 6 ppb): 5
- 16 hr Result (B.st. spores [2]; milk spiked at 6 ppb): Pos
- % Pos (16 hr Result) (B.st. spores [2]; milk spiked at 6 ppb): 100%
- % Pos (Result) (B.st. spores [2]; milk spiked at 6 ppb): 100%
- Result (B.st. spores [2]; milk spiked at 6 ppb): Pos

SMILES: CC1(C)S[C@@H]2[C@H](NC(=O)[C@H](N)c3ccccc3)C(=O)N2[C@H]1C(=O)O [Amp, ampicillin]
- % Pos (Color 2) (B.st. spores [1]; milk spiked at 5 ppb): 100%
- Color 2 (B.st. spores [1]; milk spiked at 5 ppb): 4
- % Pos (Color 1) (B.st. spores [1]; milk spiked at 5 ppb): 100%
- Color 1 (B.st. spores [1]; milk spiked at 5 ppb): 5
- 16 hr Result (B.st. spores [2]; milk spiked at 5 ppb): Pos
- % Pos (16 hr Result) (B.st. spores [2]; milk spiked at 5 ppb): 100%
- % Pos (Result) (B.st. spores [2]; milk spiked at 5 ppb): 100%
- Result (B.st. spores [2]; milk spiked at 5 ppb): Pos

SMILES: CO/N=C(\C(=O)N[C@@H]1C(=O)N2C(C(=O)O)=C(CSC(=O)c3ccco3)CS[C@H]12)c1csc(N)n1 [Ceft, ceftiofur sodium]
- % Pos (Color 2) (B.st. spores [1]; milk spiked at 50 ppb): 0%
- Color 2 (B.st. spores [1]; milk spiked at 50 ppb): 1
- % Pos (Color 1) (B.st. spores [1]; milk spiked at 50 ppb): 0%
- Color 1 (B.st. spores [1]; milk spiked at 50 ppb): 1
- % Pos (Color 2) (B.st. spores [1]; milk spiked at 100 ppb): 0%
- Color 2 (B.st. spores [1]; milk spiked at 100 ppb): 2
- % Pos (Color 1) (B.st. spores [1]; milk spiked at 100 ppb): 0%
- Color 1 (B.st. spores [1]; milk spiked at 100 ppb): 2
- 16 hr Result (B.st. spores [2]; milk spiked at 50 ppb): Pos
- % Pos (16 hr Result) (B.st. spores [2]; milk spiked at 50 ppb): 100%
- % Pos (Result) (B.st. spores [2]; milk spiked at 50 ppb): 100%
- Result (B.st. spores [2]; milk spiked at 50 ppb): Pos
- 16 hr Result (B.st. spores [2]; milk spiked at 100 ppb): Pos
- % Pos (16 hr Result) (B.st. spores [2]; milk spiked at 100 ppb): 100%
- % Pos (Result) (B.st. spores [2]; milk spiked at 100 ppb): 100%
- Result (B.st. spores [2]; milk spiked at 100 ppb): Pos

SMILES: CC(=O)OCC1=C(C(=O)O)N2C(=O)[C@@H](NC(=O)CSc3ccncc3)[C@H]2SC1 [Ceph, cephaprin]
- % Pos (Color 2) (B.st. spores [1]; milk spiked at 10 ppb): 100%
- Color 2 (B.st. spores [1]; milk spiked at 10 ppb): 5
- % Pos (Color 1) (B.st. spores [1]; milk spiked at 10 ppb): 100%
- Color 1 (B.st. spores [1]; milk spiked at 10 ppb): 5
- 16 hr Result (B.st. spores [2]; milk spiked at 10 ppb): Pos
- % Pos (16 hr Result) (B.st. spores [2]; milk spiked at 10 ppb): 100%
- % Pos (Result) (B.st. spores [2]; milk spiked at 10 ppb): 100%
- Result (B.st. spores [2]; milk spiked at 10 ppb): Pos

SMILES: Cc1onc(-c2ccccc2Cl)c1C(=O)N[C@@H]1C(=O)N2[C@@H]1SC(C)(C)[C@@H]2C(=O)O [Clox, cloxacillin]
- % Pos (Color 2) (B.st. spores [1]; milk spiked at 30 ppb): 100%
- Color 2 (B.st. spores [1]; milk spiked at 30 ppb): 5
- % Pos (Color 1) (B.st. spores [1]; milk spiked at 30 ppb): 100%
- Color 1 (B.st. spores [1]; milk spiked at 30 ppb): 4
- % Pos (Color 2) (B.st. spores [1]; milk spiked at 50 ppb): 100%
- Color 2 (B.st. spores [1]; milk spiked at 50 ppb): 5
- % Pos (Color 1) (B.st. spores [1]; milk spiked at 50 ppb): 100%
- Color 1 (B.st. spores [1]; milk spiked at 50 ppb): 5
- 16 hr Result (B.st. spores [2]; milk spiked at 30 ppb): Pos
- % Pos (16 hr Result) (B.st. spores [2]; milk spiked at 30 ppb): 100%
- % Pos (Result) (B.st. spores [2]; milk spiked at 30 ppb): 100%
- Result (B.st. spores [2]; milk spiked at 30 ppb): Pos
- 16 hr Result (B.st. spores [2]; milk spiked at 50 ppb): Pos
- % Pos (16 hr Result) (B.st. spores [2]; milk spiked at 50 ppb): 100%
- % Pos (Result) (B.st. spores [2]; milk spiked at 50 ppb): 100%
- Result (B.st. spores [2]; milk spiked at 50 ppb): Pos

SMILES: NC[C@@H]1O[C@H](O[C@H]2[C@@H](O)[C@H](O[C@@H]3[C@@H](O)[C@H](N)C[C@H](N)[C@H]3O[C@H]3O[C@H](CN)[C@@H](O)[C@H](O)[C@H]3N)O[C@@H]2CO)[C@H](N)[C@@H](O)[C@@H]1O [Neo, neomycin]
- % Pos (Color 2) (B.st. spores [1]; milk spiked at 750 ppb): 100%
- Color 2 (B.st. spores [1]; milk spiked at 750 ppb): 5
- % Pos (Color 1) (B.st. spores [1]; milk spiked at 750 ppb): 100%
- Color 1 (B.st. spores [1]; milk spiked at 750 ppb): 5
- 16 hr Result (B.st. spores [2]; milk spiked at 750 ppb): Pos
- % Pos (16 hr Result) (B.st. spores [2]; milk spiked at 750 ppb): 100%
- % Pos (Result) (B.st. spores [2]; milk spiked at 750 ppb): 100%
- Result (B.st. spores [2]; milk spiked at 750 ppb): Pos

SMILES: CC[C@@H]1CCN[C@H](C(=O)N[C@@H]([C@H]2O[C@H](SC)[C@H](O)[C@@H](O)[C@H]2O)[C@H](C)Cl)C1 [Pirl, pirlimycin]
- % Pos (Color 2) (B.st. spores [1]; milk spiked at 100 ppb): 100%
- Color 2 (B.st. spores [1]; milk spiked at 100 ppb): 4
- % Pos (Color 1) (B.st. spores [1]; milk spiked at 100 ppb): 100%
- Color 1 (B.st. spores [1]; milk spiked at 100 ppb): 4
- % Pos (Color 2) (B.st. spores [1]; milk spiked at 200 ppb): 100%
- Color 2 (B.st. spores [1]; milk spiked at 200 ppb): 5
- % Pos (Color 1) (B.st. spores [1]; milk spiked at 200 ppb): 100%
- Color 1 (B.st. spores [1]; milk spiked at 200 ppb): 5
- 16 hr Result (B.st. spores [2]; milk spiked at 100 ppb): Pos
- % Pos (16 hr Result) (B.st. spores [2]; milk spiked at 100 ppb): 100%
- % Pos (Result) (B.st. spores [2]; milk spiked at 100 ppb): 100%
- Result (B.st. spores [2]; milk spiked at 100 ppb): Pos
- 16 hr Result (B.st. spores [2]; milk spiked at 200 ppb): Pos
- % Pos (16 hr Result) (B.st. spores [2]; milk spiked at 200 ppb): 100%
- % Pos (Result) (B.st. spores [2]; milk spiked at 200 ppb): 100%
- Result (B.st. spores [2]; milk spiked at 200 ppb): Pos

SMILES: COc1ncnc(NS(=O)(=O)c2ccc(N)cc2)c1OC [SDN, sulfadoxine]
- % Pos (Color 2) (B.st. spores [1]; milk spiked at 100 ppb): 100%
- Color 2 (B.st. spores [1]; milk spiked at 100 ppb): 4
- % Pos (Color 1) (B.st. spores [1]; milk spiked at 100 ppb): 100%
- Color 1 (B.st. spores [1]; milk spiked at 100 ppb): 5
- 16 hr Result (B.st. spores [2]; milk spiked at 100 ppb): Pos
- % Pos (16 hr Result) (B.st. spores [2]; milk spiked at 100 ppb): 100%
- % Pos (Result) (B.st. spores [2]; milk spiked at 100 ppb): 100%
- Result (B.st. spores [2]; milk spiked at 100 ppb): Pos

SMILES: CC[C@H]1OC(=O)C[C@@H](O)[C@H](C)[C@@H](O[C@@H]2O[C@H](C)[C@@H](O)[C@H](N(C)C)[C@H]2O)[C@@H](CCN2C[C@H](C)C[C@H](C)C2)C[C@@H](C)C(=O)/C=C/C(C)=C/[C@@H]1CO[C@@H]1O[C@H](C)[C@@H](O)[C@@H](OC)[C@H]1OC [Til, tilmicosin]
- % Pos (Color 2) (B.st. spores [1]; milk spiked at 80 ppb): 100%
- Color 2 (B.st. spores [1]; milk spiked at 80 ppb): 5
- % Pos (Color 1) (B.st. spores [1]; milk spiked at 80 ppb): 100%
- Color 1 (B.st. spores [1]; milk spiked at 80 ppb): 5
- 16 hr Result (B.st. spores [2]; milk spiked at 80 ppb): Pos
- % Pos (16 hr Result) (B.st. spores [2]; milk spiked at 80 ppb): 100%
- % Pos (Result) (B.st. spores [2]; milk spiked at 80 ppb): 100%
- Result (B.st. spores [2]; milk spiked at 80 ppb): Pos
